Results: patent US10211534B2, “Sildenafil solutions and methods of making and using same” (priority 2014, dated 2019)
Where a name gives a salt, the structure may show the parent alone. Read-outs that look alike come from different tables or passages of the source.

How the values were obtained:
[1] = spectrophotometric analysis at 228 nm before and after filtration via a 0.22 micron filter (Example 12); assay type: physicochemical; details: at 18 mg/ml in 70% ethanol
Description: A UV-VIS Genesys 10S Thermo Scientific spectrophotometer was used for the assay. Samples were placed in a UV Kurette Halbmicro/UV Cuvette semi micro [Cat no: 759150] for reading.
Because the reference describes measurements at μg/ml concentrations, both the filtered and unfiltered 18 mg/ml solutions were diluted to 9 μg/ml and 12.5 μg/ml and measured again.

[2] = tablets or oral suspension; cited from earlier work
[3] = solubility of sildenafil citrate in EtOH/water mixtures with and without acetone (Example 1); assay type: physicochemical; details: Table 1; sildenafil citrate remaining in solution after heating
[4] = cited from earlier work
[5] = EMEA CHMP Assessment Report For Vizarsin
[6] = Jordanian Pharmaceutical Manufacturing Co.

- solubility as prepared in Example 1 [1]: fully soluble
- Final conc. (After heating) [3]: ≤ 35.7 mg/mL
SMILES: CCCc1nn(C)c2c(=O)[nH]c(-c3cc(S(=O)(=O)N4CCN(C)CC4)ccc3OCC)nc12 [sildenafil citrate]
- absolute bioavailability [2]: about 41%
- solubility in acetone [4, 5]: insoluble
- solubility in chloroform [4, 5]: insoluble
- solubility in dimethylsulfoxide (DMSO) [4, 5]: soluble
- solubility in ethanol [4, 5]: insoluble
- solubility in methanol [4, 5]: soluble
- solubility in ethanol [4, 6]: ~1000 µg/mL
- times less soluble in ethanol than in water [4, 6]: about 3.5 times
